Patent US5190873A, “Hybrid tryptophan aporepressor containing ligand binding sites” (California Institute of Biological Research, priority 1991, dated 1993)
Where no end group is shown, it is not given here.

Test system: U251MG human glioma cell attachment to TrpR-TN5 (E. coli Trp aporepressor hybrid with SRRGDMS at D/E transition)
Assay: Cell attachment assay on TrpR-TN5-coated wells, peptide competition
Type: cell-based
Details: peptide at 1 mg/ml; U251 cells
Experimental: Recombinant proteins were assessed for cell binding activity in a microtiter plate cell attachment assay. The assay is a simple and rapid means of assessing cell binding to the recombinant protein. In addition the specificity of the interaction is explored with specific inhibitor peptides, recombinant proteins and matrix proteins. Finally, the assay is used to screen a variety of cell lines to determine the range of cell types capable of interacting with the recombinant protein.
The assay used was a modification of one widely used in the field. See Bourdon et al., J. Cell Biol., 108:1149-1155 (1989). […] Nonspecific sites on the well were blocked with BSA. Human tumor cells, U251MG-human glioma or MG63-human sarcoma having the receptor which binds the SRRGDMS receptor binding site with or without inhibitor were added and allowed to adhere for 30 to 90 minutes at 37° C. Following the maintenance period, non-adherent cells were washed out and relative numbers of adherent cells were determined. The assay can detect binding interactions in the absence of extensive cell spreading.
In the cell attachment assay, the attached cells stained with Di-I a vital fluorescent dye which intercalates in cell membranes. The advantages of this form of cell tagging are that cells can be rapidly labeled, the label remains cell bound, it is not radioactive, and it is easily detected in a fluorescence plate reader.
Specificity of cell attachment was then determined in competition assays of cell attachment using SRRGDMS or GRGDSP peptides as competitive inhibitors of recombinant protein cell attachment. In the presence of 1 mg/ml SRRGDMS peptide, the specific attachment of U251MG cells to either fusion protein was inhibited as shown in FIG. 3.

Substance	inhibition of cell attachment to TrpR-TN5
SRRGDMS (SRRGDMS-NH2)	inhibited
GRGDSP (GRGDSP-NH2)	inhibited
MGSRSRD	did not inhibit
